In the oligonucleotide strings, read from the 5' end, every base follows the letter of its sugar. An asterisk marks phosphorothioate; unmarked linkages are phosphodiester. Other units and linkages are bracketed, terminal groups are in braces. A string of capitals states the bases alone. e = 2'-O-(2-methoxyethyl) (MOE); [5mC] = 5-methylcytosine
How the values were obtained:
[1] = test system: BET family of bromodomain proteins; settings: cited from earlier work
[2] = test system: MYC expression; experiment: MYC expression by qPCR after RNAiMax transfection of HEK293T cells; type: cell-based, human; settings: for MYC expression change, linker comparison: 400 to 3.125 nM
Description: HEK293T cells were seeded at 30k cells/well in a 96 well tissue culture vessel day before transfection. […] Transfected cells were allowed to recover and were harvested after 24 hours. MYC expression was measured by RNA level using qPCR analysis after transfection with each of the bi-functional molecule or control molecules. Cell samples for qPCR analysis were prepared by Cells to Ct 1 Step TaqMan Kit (ThermoFisher A25602) following manufractuer’s recommendations. qPCR assays were performed using Cells to Ct qPCR master mix, gene specific TaqMan probe (ThermoFisher), and Cells to Ct cell lysate. Relative levels of MYC were normalized to β-actin as a stably expressed control. MYC TaqMan probe: ThermoFisher Assay ID Hs00153408_ml; ACTB TaqMan probe: ThermoFisher Assay ID Hs01060665_g1. During qPCR amplification, FAM fluorescence intensity for each target gene was recorded by QuantStudio7 qPCR instrument (ThermoFisher Scientific) as a measurement of the amount of double-stranded DNA produced during each PCR cycle. Ct values for each gene in each sample were computed by the instrument software based on the amplification curves, and used to determine relative expression values for target and β-actin in each sample.

[3] = test system: MYC protein; experiment: MYC protein, FRET based ELISA (Human c-Myc Cell-based kit) in HEK293T cells; settings: 200 nM, 24 hours
Description: PVT1 ASO1-JQ1 and control molecules were transfected to HEK293T cells at 400, 200, 100, and 50 nM with RNAiMax. PVT1 ASO1-JQ1:RNAiMax ratios in transfection are: 400 nM: 1.2 ul, 200 nM:0.6 ul, 100 nM:0.3 ul, 50 nM:0.15 ul. Cells were harvested 24 hours after transfection and MYC expression changes was monitored by qPCR and by enzyme-linked immunosorbent assay (ELISA). […] For a fluorescence resonance energy transfer (FRET) based ELISA assays, cell samples were prepared by Human c-Myc Cell-based kit (Cisbio # 63ADK053PEH) following manufractuer’s recommendation. MYC protein is detected in a sandwich assay using two specific antibodies, labeled with Europium Cryptate (donor) and with d2 (acceptor). FRET signal was read with Varioskan LUX Multimode Microplate Reader (ThermoFisher) with a 6 hr kinetic read.

[4] = test system: SCN1A expression; experiment: SCN1A expression by qPCR after transfection of SK-N-AS cells; type: cell-based, human; settings: 100 to 3.125 nM, 48 hours
Description: SCN1A-ASO1 shown in Table 5A was designed against the exonic region of SCN1A mRNA. SCN1A ASO1-Linker1-JQ1 was transfected to SK-N-AS cells at 100, 50, 25, 12.5, 6.25, and 3.125 nM with RNAiMax. SCN1A ASO1-JQ1:RNAiMax ratios in transfection were: 100 nM:0.3 ul, 50 nM and below:0.15 ul. Cells were harvested 48 hours after transfection and SCN1A expression changes were monitored by qPCR. TaqMan probe used in the assay for quantitation: SCN1A Hs00374696_ml (ThermoFisher), GAPDH Hs02786624_g1 (ThermoFisher).
SCN1A ASO1-Linker1-iBET762 was transfected to SK-N-AS cells at 100, 50, 25, 12.5, 6.25, and 3.125 nM with RNAiMax. SCN1A ASO1-iBET762:RNAiMax ratios in transfection are: 100 nM:0.3 ul, 50 nM and below:0.15 ul. Cells were harvested 48 hours after transfection and SCN1A expression changes were monitored by qPCR. TaqMan probe used in the assay for quantitation: SCN1A Hs00374696_m1 (ThermoFisher), GAPDH Hs02786624_g1 (ThermoFisher). […] SCN1A encodes for the alpha-1 subunit of the voltage-gated sodium channel (Na(V)1.1), and patients with SCN1A loss of function mutations suffers from Dravet syndrome, a neurological disorder.

[5] = test system: SYNGAP1 expression; experiment: SYNGAP1 expression by qPCR after transfection of HEK293T cells; type: cell-based, human; settings: 200 nM, 48 hours
Description: SYNGAP1 ASO1-JQ1 to SYNGAP1 ASO4-JQ1 were transfected to HEK293T cells at 200, and 67 nM with RNAiMax. SYNGAP1 ASO-JQ1:RNAiMax ratios in transfection are: 200 nM:0.6 ul, 67 nM:0.2 ul. Cells were harvested 48 hours after transfection and SYNGAP1 expression changes was monitored by qPCR. TaqMan probe used in the assay for quantitation: SYNGAP1: Assay ID Hs00405348_m1 (ThermoFisher), ACTB Assay ID Hs01060665_g1(ThermoFisher).

[6] = HEK293T, 400, 133, 44, 15 nM, 24 hours

## (-)JQ1
[1]
  weaker biochemical activity as compared to JQ1: > 100 x

## PVT1 ASO1-JQ1: PVT1 ASO1 (SEQ ID NO: 7) conjugated to JQ1 with linker 2 (eG*eT*eA*eA*eG*eT*eG*eG*eA*eA*eT*eT*e[5mC]*e[5mC]*eA*eG*eT*eT*eG; JQ1 conjugated via linker 2, further chemistry not fully specified)
[2]; HEK293T, 200 nM, 24 hours
  MYC response at top dose of titration: slight decrease of MYC response
[2]; HEK293T, 200, 100, 50, 25, 12.5, 6.25, 3.125 nM, 24 hours
  MYC expression change upon dose titration: dose dependent response
[2]; HEK293T, 400, 200, 100, 50 nM, 24 hours
  MYC expression change (RNA transcripts): increase of MYC RNA transcripts
[2]; HEK293T, 24 hours
  MYC expression change, linker comparison: both active and increased MYC expression to similar levels
[2]; HEK293T, transfected at 400, 200, 100, 50 nM, harvested after 24 hours
  increase in MYC expression: about 4 fold
[3]
  MYC protein level increase: about 2 fold

## PVT1 ASO24-JQ1: PVT1 ASO24 (SEQ ID NO: 30) conjugated to JQ1 with linker 2 (CATTGAAGGATCATGGTCAT; conjugated to JQ1 via linker 2, modification pattern not given here)
[2]; [6]
  MYC expression change: increased MYC expression level similar to PVT1 ASO1-JQ1

## PVT1 ASO25-JQ1: PVT1 ASO25 (SEQ ID NO: 31) conjugated to JQ1 with linker 2 (TTATAGACTAGATTGGCCAG; conjugated to JQ1 via linker 2, modification pattern not given here)
[2]; [6]
  MYC expression change: increased MYC expression level similar to PVT1 ASO1-JQ1

## PVT1-ASO1-Linker1-JQ1: PVT1 ASO1 (SEQ ID NO: 7) conjugated to JQ1 with linker 1 (eG*eT*eA*eA*eG*eT*eG*eG*eA*eA*eT*eT*e[5mC]*e[5mC]*eA*eG*eT*eT*eG; JQ1 conjugated via linker 1, further chemistry not fully specified)
[2]; HEK293T, 24 hours
  MYC expression change, linker comparison: both active and increased MYC expression to similar levels

## PVT1-Scr1: JQ1 conjugate of partially scrambled PVT1 ASO1 sequence scr1 (SEQ ID NO: 63) (eT*eG*eA*eA*eG*eT*eG*eG*eA*eA*eT*eT*e[5mC]*e[5mC]*eA*eG*eT*eT*eG; JQ1 conjugate, further chemistry not fully specified)
[2]; HEK293T, 100 nM, 24 hours
  MYC expression change: less impact on the activities

## PVT1-Scr4: JQ1 conjugate of partially scrambled PVT1 ASO1 sequence scr4 (SEQ ID NO: 66) (eG*eT*eA*eA*eG*eT*eG*eG*eA*eA*eT*eT*e[5mC]*e[5mC]*eA*eT*eT*eG*eG; JQ1 conjugate, further chemistry not fully specified)
[2]; HEK293T, 100 nM, 24 hours
  MYC expression change: less impact on the activities

## PVT1-Scr8: JQ1 conjugate of partially scrambled PVT1 ASO1 sequence scr8 (SEQ ID NO: 70) (eG*eT*eA*eA*eG*eT*eG*eG*eA*eA*eT*eT*e[5mC]*e[5mC]*eA*eT*eG*eG*eT; JQ1 conjugate, further chemistry not fully specified)
[2]; HEK293T, 100 nM, 24 hours
  MYC expression change: less impact on the activities

## SCN1A ASO1-JQ1: SCN1A ASO1 (SEQ ID NO: 46), 5′ Azide-N modified LNA mixmer, conjugated to JQ1 with linker 1 (AGTAAGACTGGGGTTGTT; 5' azide, LNA mixmer, JQ1 via linker 1, chemistry not fully specified)
[4]
  increase in SCN1A expression: about 2 fold

## SYNGAP1 ASO2-JQ1: SYNGAP1 ASO2 (SEQ ID NO: 48) conjugated to JQ1 using Linker 2 (ATCACCTCCTATAGCTCCT; 5' amino modified, conjugated to JQ1 via linker 2, further chemistry not given here)
[5]
  increase in SYNGAP1 expression: about 2 fold

Source: patent publication US20230332145A1, “BIFUNCTIONAL MOLECULES AND METHODS OF USING THEREOF” (Flagship Pioneering, Inc., priority 2020, published 2023)
